{
  "source": "paper PMC12030165",
  "about": "“Bioactivity of Synthesized Trifluoromethyl Thioxanthone Analogues” (Pharmaceuticals, 2025)",
  "key": {"[1]": {"molecular_target": "T1, porcine pancreatic lipase (Sus scrofa, UniProt P00591)", "T1 construct": "purchased Sigma-Aldrich (Missouri, MO, USA)", "T1 sequence (P00591 1-450)": "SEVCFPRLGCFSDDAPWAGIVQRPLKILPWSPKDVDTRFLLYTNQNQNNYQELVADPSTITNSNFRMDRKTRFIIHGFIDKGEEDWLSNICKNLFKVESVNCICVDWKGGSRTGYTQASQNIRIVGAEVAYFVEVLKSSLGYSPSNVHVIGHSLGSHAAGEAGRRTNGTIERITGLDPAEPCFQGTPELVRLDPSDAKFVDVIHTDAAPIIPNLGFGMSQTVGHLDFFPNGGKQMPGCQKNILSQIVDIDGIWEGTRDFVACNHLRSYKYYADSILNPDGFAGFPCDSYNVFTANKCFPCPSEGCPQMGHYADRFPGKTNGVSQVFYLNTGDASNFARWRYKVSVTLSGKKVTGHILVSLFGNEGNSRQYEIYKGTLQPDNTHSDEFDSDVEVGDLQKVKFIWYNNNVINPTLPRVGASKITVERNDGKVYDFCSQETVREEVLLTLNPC", "assay": "Inhibition assay of pancreatic lipase enzyme (PNPB)", "assay_type": "biochemical", "protocol": "A stock solution of 1 mg/mL (1000 μg/mL) was prepared for each product using 10% DMSO. This stock solution created […] different concentrations at 20, 50, and 70 μg/mL. A fresh stock solution of pancreatic lipase enzyme was prepared immediately before use. […] In the experiment, 0.1 mL of the 1 mg/mL porcine pancreatic lipase solution was added to test tubes containing 0.2 mL of each of the various concentrations of the products. The mixtures were then brought to a final volume of 1 mL by adding a Tris-HCl solution (pH 7.4) and were incubated at 25 °C for 15 min. After the incubation period, 0.1 mL of the PNPB solution was added to each test tube, and the mixtures were incubated again for 30 min at 37 °C. The activity of pancreatic lipase was measured by assessing the hydrolysis of p-nitrophenyl butyrate to p-nitrophenol at a wavelength of 410 nm using a UV-visible spectrophotometer."}, "COX-1": {"molecular_target": "T2, COX-1 (Homo sapiens, UniProt P23219)", "T2 construct": "purchased Cayman Chemicals 701230", "T2 sequence (P23219 24-599)": "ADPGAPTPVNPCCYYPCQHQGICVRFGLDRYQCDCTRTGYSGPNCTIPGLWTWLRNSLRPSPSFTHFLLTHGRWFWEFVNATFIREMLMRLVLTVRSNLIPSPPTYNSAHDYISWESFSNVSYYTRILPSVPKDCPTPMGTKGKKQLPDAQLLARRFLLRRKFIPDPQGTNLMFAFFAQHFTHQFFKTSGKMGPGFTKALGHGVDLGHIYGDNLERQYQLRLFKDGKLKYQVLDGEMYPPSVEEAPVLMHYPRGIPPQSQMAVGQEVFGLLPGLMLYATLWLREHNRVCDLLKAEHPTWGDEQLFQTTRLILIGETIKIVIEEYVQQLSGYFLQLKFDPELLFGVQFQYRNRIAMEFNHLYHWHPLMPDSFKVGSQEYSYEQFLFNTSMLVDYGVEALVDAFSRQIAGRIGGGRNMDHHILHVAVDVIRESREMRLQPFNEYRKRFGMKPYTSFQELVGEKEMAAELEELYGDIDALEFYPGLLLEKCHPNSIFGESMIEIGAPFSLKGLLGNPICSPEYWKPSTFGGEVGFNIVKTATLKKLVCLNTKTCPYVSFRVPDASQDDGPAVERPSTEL", "assay": "COX (human) Inhibitor Screening Assay, COX-1", "assay_type": "biochemical", "protocol": "Our synthesized compounds’ COX-1 and COX-2 inhibitory activities were evaluated using the COX (human) Inhibitor Screening Assay Kit supplied by Cayman Chemicals (catalog no. 701230, Ann Arbor, MI, USA). The preparation of reagents and testing procedures were conducted according to the manufacturer’s recommendations. Two concentrations of the inhibitors (10 µM and 50 µM) were dissolved in a minimal amount of dimethyl sulfoxide (DMSO) and incubated with a mixture of COX-1 or COX-2 enzyme and heme in a diluted reaction buffer for 10 min at 37 °C. The reaction was initiated by adding 10 µL of arachidonic acid, followed by a two-minute incubation at 37 °C. The reaction was halted by adding 30 µL of stannous chloride solution to each reaction tube and incubating for 5 min at room temperature. The resulting PGF2α, produced by the COX reactions, was quantified using an enzyme-linked immunosorbent assay (ELISA). The 96-well plate was covered with plastic film and incubated for 18 h at room temperature on an orbital shaker. After incubation, the plate was rinsed five times with a wash buffer. Then, Ellman’s reagent (200 µL) was added, and the plate was incubated for approximately 60–90 min at room temperature until the absorbance of the blank well was in the range of 0.3–0.8 at 405 nm. The plate was read using a Unilab Microplate Reader 6000. The inhibitory percentage was calculated for each concentration tested against the control. The IC50 values were derived from the concentration-inhibition response curve, and the selectivity index (SI) was calculated by dividing the IC50 for COX-2 by the IC50 for COX-1 [52]."}, "[2]": {"assay": "DPPH antioxidant activity assay", "protocol": "To evaluate four synthesized compounds and Trolox (as a positive control), a 1 mg/mL concentration in methanol was first made from phenyl alcohol. The prepared solution was produced in concentrations of 1, 2, 3, 5, 7, 10, 20, 30, 50, and 80 µg/mL. The DPPH reagent was then diluted in 0.002% w/v methanol and combined in a […] ratio with the previously produced working concentrations. A blank solution of 100% methanol was used. All solutions were incubated at room temperature for 30 min in a dark environment. Their absorbance values were then determined using a UV-visible spectrophotometer set at a wavelength of 517 nm. The antioxidant capacity of each chemical compound fraction and Trolox were calculated using the following formula:% inhibition = ((Abs blank − Abs Sample)/Abs Blank) × 100 where:\nAbs blank: Absorbance value of the control reaction containing all reagents except the synthesized compound.\nAbs sample: The absorbance value of the synthesized compound [48]."}, "HeLa cells": {"test_system": "HeLa cells", "assay": "Cytotoxicity (MTS) against HeLa cells", "assay_type": "cell-based", "details": "for IC50: Homo sapiens, HeLa, concentration range 100–20,000 nM, read-out: IC50 of inhibition activity against Hela cells", "protocol": "RPMI-1640 medium was used to culture cervical adenocarcinoma (HeLa) cancer cells, supplemented with 10% fetal bovine serum, 1% penicillin/streptomycin, and 1% L-glutamine. The HeLa cells were grown in a humidified environment at 37 °C with a 5% CO2 atmosphere. A 96-well plate was employed for seeding the cells at a density of 2.6 × 10^4 cells per well. Following a 24-h incubation, the cells were treated with various concentrations of the tested (AO) fractions. Cell viability was assessed using the Cell Titer 96® Aqueous One Solution Cell Proliferation (MTS) assay, following the manufacturer’s instructions (Promega Corporation, Wisconsin, WI, USA). Briefly, at the end of the treatment, 20 µL of MTS solution was added to each well containing 100 µL of media, and the cells were incubated at 37 °C for 2 h. The absorbance was measured using a UV-visible spectrophotometer at a wavelength of 490 nm."}},
  "data": [
    {"molecule": "OC1(c2ccccc2)c2ccccc2Sc2ccc(C(F)(F)F)cc21", "note": "(stereo not drawn) [Compound 1, 9-phenyl-2-(trifluoromethyl)-9H-thioxanthen-9-ol]", "values": [
      {"measurement": "IC50", "setting": "[1]", "value": 176, "unit": "µM"},
      {"measurement": "IC50", "setting": "COX-1", "value": "40.2 ± 0.41", "unit": "nM"},
      {"measurement": "% inhibition of DPPH radical (radical scavenging)", "setting": "[2]; 1 µg/mL", "value": "7.1 ± 1.2", "unit": "%"},
      {"measurement": "% inhibition of DPPH radical (radical scavenging)", "setting": "[2]; 2 µg/mL", "value": "7.6 ± 2.3", "unit": "%"},
      {"measurement": "% inhibition of DPPH radical (radical scavenging)", "setting": "[2]; 3 µg/mL", "value": "8.2 ± 1.5", "unit": "%"},
      {"measurement": "% inhibition of DPPH radical (radical scavenging)", "setting": "[2]; 5 µg/mL", "value": "8.6 ± 3.1", "unit": "%"},
      {"measurement": "% inhibition of DPPH radical (radical scavenging)", "setting": "[2]; 7 µg/mL", "value": "8.9 ± 2.3", "unit": "%"},
      {"measurement": "% inhibition of DPPH radical (radical scavenging)", "setting": "[2]; 10 µg/mL", "value": "9.3 ± 1.6", "unit": "%"},
      {"measurement": "% inhibition of DPPH radical (radical scavenging)", "setting": "[2]; 20 µg/mL", "value": "9.9 ± 2.5", "unit": "%"},
      {"measurement": "% inhibition of DPPH radical (radical scavenging)", "setting": "[2]; 30 µg/mL", "value": "12.6 ± 3.2", "unit": "%"},
      {"measurement": "% inhibition of DPPH radical (radical scavenging)", "setting": "[2]; 50 µg/mL", "value": "12.9 ± 2.6", "unit": "%"},
      {"measurement": "% inhibition of DPPH radical (radical scavenging)", "setting": "[2]; 80 µg/mL", "value": "16.3 ± 4.3", "unit": "%"},
      {"measurement": "% toxicity against HeLa cells", "setting": "HeLa cells; 200 nM", "value": 93.18, "unit": "%"},
      {"measurement": "IC50", "setting": "HeLa cells", "value": 87.8, "unit": "nM"}
    ]},
    {"molecule": "OC1(Cc2ccccc2)c2ccccc2Sc2ccc(C(F)(F)F)cc21", "note": "(stereo not drawn) [Compound 2, 9-benzyl-2-(trifluoromethyl)-9H-thioxanthen-9-ol]", "values": [
      {"measurement": "IC50", "setting": "[1]", "value": "111 ± 7.5", "unit": "µM"},
      {"measurement": "IC50", "setting": "COX-1", "value": "14 ± 0.64", "unit": "nM"},
      {"measurement": "% inhibition of DPPH radical (radical scavenging)", "setting": "[2]; 1 µg/mL", "value": "36.3 ± 2.4", "unit": "%"},
      {"measurement": "% inhibition of DPPH radical (radical scavenging)", "setting": "[2]; 2 µg/mL", "value": "37.3 ± 3.9", "unit": "%"},
      {"measurement": "% inhibition of DPPH radical (radical scavenging)", "setting": "[2]; 3 µg/mL", "value": "39.3 ± 4.2", "unit": "%"},
      {"measurement": "% inhibition of DPPH radical (radical scavenging)", "setting": "[2]; 5 µg/mL", "value": "39.5 ± 3.4", "unit": "%"},
      {"measurement": "% inhibition of DPPH radical (radical scavenging)", "setting": "[2]; 7 µg/mL", "value": "39.7 ± 3.6", "unit": "%"},
      {"measurement": "% inhibition of DPPH radical (radical scavenging)", "setting": "[2]; 10 µg/mL", "value": "40.1 ± 4.9", "unit": "%"},
      {"measurement": "% inhibition of DPPH radical (radical scavenging)", "setting": "[2]; 20 µg/mL", "value": "40.7 ± 2.5", "unit": "%"},
      {"measurement": "% inhibition of DPPH radical (radical scavenging)", "setting": "[2]; 30 µg/mL", "value": "40.7 ± 3.8", "unit": "%"},
      {"measurement": "% inhibition of DPPH radical (radical scavenging)", "setting": "[2]; 50 µg/mL", "value": "41.6 ± 5.1", "unit": "%"},
      {"measurement": "% inhibition of DPPH radical (radical scavenging)", "setting": "[2]; 80 µg/mL", "value": "42.2 ± 3.9", "unit": "%"},
      {"measurement": "IC50", "setting": "HeLa cells", "value": 169, "unit": "nM"}
    ]},
    {"molecule": "S-(9-benzyl-2-(trifluoromethyl)-9H-thioxanthen-9-yl)-L-cysteine [Compound 3]", "values": [
      {"measurement": "IC50", "setting": "[1]", "value": 277, "unit": "µM"},
      {"measurement": "IC50", "setting": "COX-1", "value": "32.5 ± 0.53", "unit": "nM"},
      {"measurement": "% inhibition of DPPH radical (radical scavenging)", "setting": "[2]; 1 µg/mL", "value": "31.3 ± 2.3", "unit": "%"},
      {"measurement": "% inhibition of DPPH radical (radical scavenging)", "setting": "[2]; 2 µg/mL", "value": "36.4 ± 3.5", "unit": "%"},
      {"measurement": "% inhibition of DPPH radical (radical scavenging)", "setting": "[2]; 3 µg/mL", "value": "39.9 ± 3.6", "unit": "%"},
      {"measurement": "% inhibition of DPPH radical (radical scavenging)", "setting": "[2]; 5 µg/mL", "value": "39.9 ± 4.1", "unit": "%"},
      {"measurement": "% inhibition of DPPH radical (radical scavenging)", "setting": "[2]; 7 µg/mL", "value": "40.1 ± 3.8", "unit": "%"},
      {"measurement": "% inhibition of DPPH radical (radical scavenging)", "setting": "[2]; 10 µg/mL", "value": "40.2 ± 5.1", "unit": "%"},
      {"measurement": "% inhibition of DPPH radical (radical scavenging)", "setting": "[2]; 20 µg/mL", "value": "40.4 ± 5.2", "unit": "%"},
      {"measurement": "% inhibition of DPPH radical (radical scavenging)", "setting": "[2]; 30 µg/mL", "value": "41.9 ± 4.9", "unit": "%"},
      {"measurement": "% inhibition of DPPH radical (radical scavenging)", "setting": "[2]; 50 µg/mL", "value": "42.9 ± 3.2", "unit": "%"},
      {"measurement": "% inhibition of DPPH radical (radical scavenging)", "setting": "[2]; 80 µg/mL", "value": "46.6 ± 2.4", "unit": "%"}
    ]}
  ]
}
